{
  "source": "patent US20180116999A1",
  "about": "“METHODS OF TREATING FIBROTIC DISEASES USING TETRAHYDROCANNABINOL-11-OIC ACIDS” (Corbus Pharmaceuticals, Inc., priority 2011, published 2018)",
  "key": {"[1]": {"tested_on": "SSc fibroblasts", "assay": "Collagen (PIP) concentration in supernatant of SSc fibroblasts", "type": "cell-based, human", "conditions": "for reversal of AjA inhibitory effect on PIP/collagen production by PPAR-γ antagonist: antagonist 10 μM, pre-incubation 15 minutes before AjA"}, "[2]": {"tested_on": "bleomycin-induced dermal fibrosis in DBA/2J mice", "assay": "Bleomycin-induced dermal fibrosis", "type": "in vivo", "protocol": "Skin fibrosis was induced in two groups of 6-week old DBA/2J mice by local injection of bleomycin. Briefly, 100 microliter of BLM dissolved in 0.9% NaCI at a concentration of 0.5 mg/ml were administered every other day, in well defined areas (1 cm^2) of the upper back. One group of BLM-challenged mice received orally AjA 1 mg/kg/day, dissolved in seed oil. Subcutaneous injections of 100 ul 0.9% NaCI were used as controls. After 21 days, animals were killed by cervical dislocation. The injected skin was removed and processed for analysis. Each treatment group consisted of eight mice. The local ethical committee approved all animal experiments. […].\nThree lesional skin samples were taken from every animal of each group and 5 μm skin sections (three for each skin sample) were stained with haematoxylin and eosin. Dermal thickness was calculated at 10× microscopic magnification by measuring the distance between the dermal—epidermal junction and the dermal—subcutaneous fat junction (micrometer) in five randomly selected fields for each skin section. Results were expressed as mean±SD. Two different examiners performed the evaluation blindly.\nThe collagen content of lesional skin was evaluated by colourimetric quantification of hydroxyproline on three different skin biopsies (3 mm punch) taken from every animal in each group. 15 Absorbencies were measured at 560 nm in triplicate. The results were expressed as μg of hydroxyproline per biopsy (mean±SD).\nSkin sections (5 μm) were processed in order to evaluate expression of a smooth muscle actin (α-SMA) (mouse monoclonal antibody) (Santa Cruz Biotechnology, Santa Cruz, Calif., USA) After deparaffinization, skin sections were incubated with 3% bovine serum albumin for 30 minutes to block nonspecific binding, followed by incubation with 3% H2O2 for 5 minutes to block endogenous peroxidase activity. A-SMA staining was performed according to the protocol of manufacturer using M.O.M kit (Vector, UK). Staining was visualized with diaminobenzidine, using a peroxidase substrate kit (Dako, Glostrup Denmark). Cell counts were performed blindly by two different operators, at 40× magnification, in five non-contiguous microscope fields of three sections from each lesional skin sample. Results are expressed as mean±SD of positive spindle-shaped fibroblastic cells per field."}, "[3]": {"tested_on": "SSc and healthy fibroblasts", "assay": "Cell viability (MTT assay)", "type": "cell-based, human", "conditions": "AjA in concentrations up to 10 pM (so in the source), 24 hours, data not shown", "protocol": "SSc and healthy fibroblasts were plated at a density of 100000 cells/well in 24 well plate and treated with AjA at concentrations of 0.1, 1, 5 and 10 μM for 24 hours in presence or absence of GW9662 at concentrations of 1 and 10 μM. Cell metabolic activity was measured by 3-(4,5-dimethylthiazol-2-yl)-2,5-diphenyltetrazolium bromide (MTT) assay. After removal of 100 μl of the growth medium, MTT was added at a final concentration of 3 mg/ml, and the cells were incubated at 37° C. for an additional 4 hours. Formazan crystals were dissolved in DMSO and optical density was measured at 570 nm using a spectrophotometer."}, "[4]": {"tested_on": "PPAR-γ", "assay": "PPAR-γ expression by Western blot in SSc fibroblasts", "type": "cell-based, human", "conditions": "AjA 5 microM and 10 microM", "protocol": "(§1) SSc and healthy dermal fibroblasts were cultured in DMEM containing 2.5% of fetal calf serum (FCS) for 24 hours before the experiments. Dermal fibroblasts were incubated with AjA (JB Therapeutics, Newton, Mass., USA), dissolved in dimethyl sulfoxide at 0.1, 1, 5 and 10 microM concentrations for 24 hours. Experiments with the PPAR-γ irreversible antagonist GW9662 (Tocris Bioscience, Bristol, UK), 1 and 10 microM, were performed by incubating dermal fibroblasts for 15 minutes before AjA treatment.\nAfter rinsing twice with PBS, cells were lysed with Ripa buffer (Santa Cruz Biotechnology, Santa Cruz, Calif., USA). Subsequently, cell lysates were incubated on ice for 30 minutes and centrifuged at 14,000 g for 20 minutes. Protein concentrations were measured using the Bradford assay (Bio-Rad, Reinach, Switzerland). […] After incubation with horseradish peroxidase (HRP)-conjugated donkey anti-goat antibodies Santa Cruz Biotechnology) at a dilution of 1:10000 for 45 minutes, signals were detected with ECL Western Blotting Detection Reagents (Amersham Bioscience, Freiburg, Germany) and exposure to x-ray film (SuperRX; Fuji, Dusseldorf, Germany). For confirmation of equal loading of proteins, the amount of alpha-tubulin was determined using mouse anti-human a-tubulin antibodies (dilution 1:1,000; Sigma) and HRP-conjugated rabbit anti-mouse antibodies (dilution 1:5000; Santa Cruz). […]"}, "[5]": {"tested_on": "15d-PGJ2", "assay": "15d-PGJ2 supernatant levels (ELISA) of SSc fibroblasts", "type": "cell-based, human", "conditions": "incubation with AjA", "protocol": "as §1\n(§2) The supernatant was collected and stored at −20° C. prior to and after AjA±GW9662 treatment. An EIA kit (Takara Bio, Otsu, Japan) and ELISA kit (Euroclone, Lugano, Switzerland) were used to assess the procollagen type I carboxy-terminal peptide (PIP) and TGF-β and PGJ2 supernatant levels, respectively. Results are mean±SD of five separate experiments."}, "[6]": {"tested_on": "TGF-beta", "assay": "TGF-beta supernatant levels (ELISA) of SSc fibroblasts", "type": "cell-based, human", "protocol": "as §1, §2"}, "[7]": {"tested_on": "bleomycin-induced lung fibrosis", "assay": "Bleomycin lung fibrosis, Day 21 histology of lung", "type": "in vivo"}, "[8]": {"molecular_target": "CB1 receptor (Homo sapiens, UniProt P21554)", "sequence (P21554 whole entry)": "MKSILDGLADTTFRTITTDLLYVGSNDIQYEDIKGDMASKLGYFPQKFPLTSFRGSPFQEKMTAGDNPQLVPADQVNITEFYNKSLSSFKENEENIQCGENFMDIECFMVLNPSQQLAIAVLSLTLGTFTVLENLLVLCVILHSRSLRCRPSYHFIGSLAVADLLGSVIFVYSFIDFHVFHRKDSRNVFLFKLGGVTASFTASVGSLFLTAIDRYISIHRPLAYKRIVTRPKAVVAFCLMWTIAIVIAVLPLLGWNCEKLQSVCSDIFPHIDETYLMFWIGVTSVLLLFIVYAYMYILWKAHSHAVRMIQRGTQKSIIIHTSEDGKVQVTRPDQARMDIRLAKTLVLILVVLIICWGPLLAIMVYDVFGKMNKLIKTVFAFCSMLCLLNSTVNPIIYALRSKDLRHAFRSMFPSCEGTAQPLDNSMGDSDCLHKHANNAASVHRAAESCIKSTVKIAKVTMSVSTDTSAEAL", "conditions": "cited from earlier work"}, "[9]": {"molecular_target": "CB2 receptor (Homo sapiens, UniProt P34972)", "sequence (P34972 whole entry)": "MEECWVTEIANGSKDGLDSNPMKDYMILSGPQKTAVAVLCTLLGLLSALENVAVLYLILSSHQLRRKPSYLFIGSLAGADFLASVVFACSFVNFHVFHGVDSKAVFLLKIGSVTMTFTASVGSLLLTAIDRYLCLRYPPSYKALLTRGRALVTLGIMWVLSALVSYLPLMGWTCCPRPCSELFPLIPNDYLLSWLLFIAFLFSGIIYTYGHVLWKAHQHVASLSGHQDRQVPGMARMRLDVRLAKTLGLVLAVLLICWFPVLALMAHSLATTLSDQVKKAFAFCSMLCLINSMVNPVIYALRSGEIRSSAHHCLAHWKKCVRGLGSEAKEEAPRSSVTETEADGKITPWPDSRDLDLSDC", "conditions": "cited from earlier work"}, "[10]": {"molecular_target": "T1, peroxisome proliferated-activated receptor-γ (PPAR-γ) (Homo sapiens, UniProt P37231)", "T1 sequence (P37231 1-505)": "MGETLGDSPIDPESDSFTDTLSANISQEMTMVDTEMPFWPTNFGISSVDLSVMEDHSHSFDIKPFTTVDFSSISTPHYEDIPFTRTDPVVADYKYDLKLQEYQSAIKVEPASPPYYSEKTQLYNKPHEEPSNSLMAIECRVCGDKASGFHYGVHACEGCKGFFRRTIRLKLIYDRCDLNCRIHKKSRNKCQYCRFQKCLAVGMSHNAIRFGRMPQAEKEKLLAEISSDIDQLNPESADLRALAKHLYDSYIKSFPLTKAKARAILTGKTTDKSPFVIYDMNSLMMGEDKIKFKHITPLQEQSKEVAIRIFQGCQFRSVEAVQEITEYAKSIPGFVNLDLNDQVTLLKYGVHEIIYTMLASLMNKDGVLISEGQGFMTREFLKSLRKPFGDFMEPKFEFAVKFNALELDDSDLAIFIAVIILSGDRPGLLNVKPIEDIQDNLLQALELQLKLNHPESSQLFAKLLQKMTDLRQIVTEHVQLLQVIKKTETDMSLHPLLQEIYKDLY", "conditions": "cited from earlier work"}, "[11]": {"tested_on": "embryogenic fibroblastic 3T3 L1 cells", "conditions": "process mediated by PPAR-γ; cited from earlier work"}, "[12]": {"tested_on": "humans", "conditions": "doses up to 80 mg/day, cited from earlier work"}, "[13]": {"conditions": "AjA 1 mg/kg/day, BLM-challenged mice"}, "[14]": {"conditions": "AjA 1 mg/kg/day, after treatment"}, "[15]": {"conditions": "AjA 10 pM (so in the source), SSc fibroblasts"}, "[16]": {"conditions": "listed as (6aR,10aR)-4-(1,1-dimethylheptyl)-Δ8-tetrahydro-cannabinol-9-carboxylic acid"}},
  "note": "“Also recorded” adds a separate entry of the source. Read-outs that look alike come from different tables or passages of the source.",
  "data": [
    {"compound": "O=C(Nc1ccccc1)c1cc([N+](=O)[O-])ccc1Cl", "note": "[GW9662, reference compound]", "values": [
      {"measurement": "reversal of AjA inhibitory effect on PIP/collagen production by PPAR-γ antagonist", "setting": "[1]; SSc fibroblasts", "result": "completely reverted"},
      {"measurement": "reversal of AjA inhibitory effect on PIP/collagen production by PPAR-γ antagonist", "setting": "[1]; SSc fibroblasts, listed as GW966", "result": "completely prevented the anti-fibrotic effects of AjA"},
      {"measurement": "prevention of AjA inhibitory effect on collagen production by PPAR-γ antagonist, dose dependence", "setting": "[1]; antagonist 1-10 μM pre-incubation", "result": "prevented by GW9662 in a dose-dependent manner"}
    ]},
    {"compound": "CCCCCCC(C)(C)c1cc(O)c2c(c1)OC(C)(C)[C@@H]1CC=C(C(=O)O)C[C@@H]21", "note": "[AjA, (6aR,10aR)-3-(1,1-dimethylheptyl)-6a,7,10,10a-tetrahydro-1-hydroxy-6,6-dimethyl-6H-Dibenz o(b,d)pyran-9-carboxylic acid]", "values": [
      {"measurement": "dermal thickness of lesional skin", "setting": "[2]; AjA 1 mg/kg/day orally, 21 days, BLM-challenged DBA/2J mice", "result": "reduced skin thickness nearly to control levels; also recorded: dermal thickness was equal to control group"},
      {"measurement": "hydroxyproline content of lesional skin (collagen deposition)", "setting": "[2]; AjA 1 mg/kg/day, 21 days, BLM-challenged mice", "result": "completely abrogated the collagen deposition induced by BLM; also recorded: dermal thickness was equal to control group"},
      {"measurement": "alpha-SMA positive cells, immunohistochemistry", "setting": "[2]; [13]", "result": "strong downregulation of alpha-SMA positive cells"},
      {"measurement": "leukocyte infiltration, ECM accumulation and fat layer replacement in lesional skin (histology)", "setting": "[2]; [13]", "result": "the subcutaneous leukocyte infiltration, the accumulation of ECM and the fat layer replacement were reduced; also recorded: strongly reduced the leukocyte infiltration"},
      {"measurement": "reduction of number of myofibroblasts (α-SMA positive spindle-shaped fibroblastic cells) in lesional skin", "setting": "[2]; [13]", "result": "up to 26%"},
      {"measurement": "body weight, BLM/AjA group vs BLM group", "setting": "[2]; [14]", "result": "did not differ in terms of body weight"},
      {"measurement": "signs of toxicity (ruffled fur, reduced activity)", "setting": "[2]; [14]", "result": "no other signs of toxicity"},
      {"measurement": "supernatant PIP levels, dose dependence", "setting": "[1]; AjA 0.1, 1, 5 and 10 μM, 24 hours, SSc fibroblasts", "result": "dose-dependently decreased the levels of PIP; also recorded: dose-dependent reduction of supernatant PIP levels"},
      {"measurement": "inhibition at 10 µM", "setting": "[1]; Homo sapiens, Fibroblast, AjA 10 μM, 24 hours, SSc fibroblasts supernatant, read-out: mean PIP reduction (maximal inhibition)", "result": "≤ 60", "unit": "%"},
      {"measurement": "metabolic activity measured by the MTT assay", "setting": "[3]", "result": "not affected"},
      {"measurement": "PPAR-γ protein expression in SSc fibroblasts", "setting": "[4]", "result": "completely restored the expression of PPAR-γ"},
      {"measurement": "levels of 15d-PGJ2 in supernatants of SSc fibroblasts", "setting": "[5]", "result": "strongly increased the levels of 15d-PGJ2 in dose-dependent manner"},
      {"measurement": "duration of significant TGF-beta downregulation", "setting": "[6]; [15]", "result": "≤ 24", "unit": "h"},
      {"measurement": "time of maximum TGF-beta inhibition", "setting": "[6]; [15]", "result": 2, "unit": "h"},
      {"measurement": "supernatant TGF-beta", "setting": "[6]; AjA 5 and 10 microM, SSc fibroblasts", "result": "significant reduction of supernatant TGF-beta"},
      {"measurement": "time of maximum TGF-beta suppression", "setting": "[6]; SSc fibroblasts, AjA", "result": 2, "unit": "h"},
      {"measurement": "reduction in TGF-beta concentrations in supernatants from SSc fibroblasts", "setting": "[6]; incubation with AjA, dose-dependent", "result": "up to 50%"},
      {"measurement": "lung fibrosis (histology)", "setting": "[7]; AjA 1 and 5 mg/kg qd x 21 d, bleomycin", "result": "fibrosis was significantly inhibited"},
      {"measurement": "parenchymal infiltration of leukocytes in lung", "setting": "[7]; AjA qd x 21 d, more evident in the 5 mg/kg group", "result": "parenchymal infiltration of leukocytes was reduced"},
      {"measurement": "affinity for CB1 receptor", "setting": "[8]", "result": "weak ligand"},
      {"measurement": "affinity for CB1 receptor", "setting": "[8]; [16]", "result": "high affinity"},
      {"measurement": "affinity for CB2 receptor", "setting": "[9]", "result": "weak ligand"},
      {"measurement": "affinity for CB2 receptor", "setting": "[9]; [16]", "result": "high affinity"},
      {"measurement": "binding to and activation of PPAR-γ", "setting": "[10]", "result": "binds to and activates"},
      {"measurement": "differentiation of 3T3 L1 cells into adipocytes", "setting": "[11]", "result": "stimulates the differentiation of embryogenic fibroblastic 3T3 L1 cells into adipocytes"},
      {"measurement": "tolerability in humans", "setting": "[12]; without significant psychotropic effects", "result": "well tolerated"},
      {"measurement": "chronic neuropathic pain in humans", "setting": "[12]", "result": "can reduce chronic neuropathic pain"}
    ]}
  ]
}
